Results reported in BindingDB's records for patent US20250346600 (Moma Therapeutics, 2025).

Columns and labels:
[1] = molecular target: T1, Bifunctional 3'-5' exonuclease/ATP-dependent helicase WRN [2-1432] (UniProt Q14191); assay: WRN activity Format A
T1 construct: 2-1432
Procedure: Full length WRN protein (aa 2-1432) (production described separately) was used for the biochemical activity assays. The 39-mer ssDNA “C6.18” ([…]) was purchased from IDT and used as a substrate. Quantification of ATP hydrolysis was evaluated using the ADP-Glo assay kit (Promega, Madison, WI). An enzyme titration time-course was performed to determine the optimal assay conditions. […] To evaluate the inhibitory effects of the compounds, 11-point 3-fold serial dilutions were prepared in DMSO.50nL of each concentration in duplicate was preincubated for 30 minutes in a 384-well microplate (Greiner #784075) with 5μL of 0.5nM WRN in assay buffer. The reaction was initiated by adding 5μL of 200nM C6.18 DNA with 20μM ATP and was allowed to proceed for 30 minutes at room temperature. The reaction was stopped with 10μL ADP-Glo reagent for 1 hour to remove unreacted ATP. Lastly, 20μL ATP detection reagent was added and incubated for 1 hour to generate the luminescence signal. Control wells included “high controls” with no inhibition (DMSO, no compound) and “low controls” with maximum inhibition (no WRN). Luminescence was recorded on a PHERAstar (BMG Labtech, Ortenberg, Germany). Data was fit using the “Smart Fit” method within the Genedata Screener Software (Basel, Switzerland) to obtain IC50 values using four-parameter fits. Reported IC50s are the geometric means of at least two independent trials.

[2] = molecular target: T1, Bifunctional 3'-5' exonuclease/ATP-dependent helicase WRN [2-1432]; assay: WRN activity Format B
Procedure: The 39-mer ssDNA “C6.18” ([…]) was purchased from IDT and used as a substrate. Quantification of ATP hydrolysis was evaluated using the ADP-Glo assay kit (Promega, Madison, WI). An enzyme titration time-course was performed to determine the optimal assay conditions. […] Data was fit using the “Smart Fit” method within the Genedata Screener Software (Basel, Switzerland) to obtain IC50 values using four-parameter fits. Reported IC50s are the geometric means of at least two independent trials.

T1 sequence (Q14191 2-1432): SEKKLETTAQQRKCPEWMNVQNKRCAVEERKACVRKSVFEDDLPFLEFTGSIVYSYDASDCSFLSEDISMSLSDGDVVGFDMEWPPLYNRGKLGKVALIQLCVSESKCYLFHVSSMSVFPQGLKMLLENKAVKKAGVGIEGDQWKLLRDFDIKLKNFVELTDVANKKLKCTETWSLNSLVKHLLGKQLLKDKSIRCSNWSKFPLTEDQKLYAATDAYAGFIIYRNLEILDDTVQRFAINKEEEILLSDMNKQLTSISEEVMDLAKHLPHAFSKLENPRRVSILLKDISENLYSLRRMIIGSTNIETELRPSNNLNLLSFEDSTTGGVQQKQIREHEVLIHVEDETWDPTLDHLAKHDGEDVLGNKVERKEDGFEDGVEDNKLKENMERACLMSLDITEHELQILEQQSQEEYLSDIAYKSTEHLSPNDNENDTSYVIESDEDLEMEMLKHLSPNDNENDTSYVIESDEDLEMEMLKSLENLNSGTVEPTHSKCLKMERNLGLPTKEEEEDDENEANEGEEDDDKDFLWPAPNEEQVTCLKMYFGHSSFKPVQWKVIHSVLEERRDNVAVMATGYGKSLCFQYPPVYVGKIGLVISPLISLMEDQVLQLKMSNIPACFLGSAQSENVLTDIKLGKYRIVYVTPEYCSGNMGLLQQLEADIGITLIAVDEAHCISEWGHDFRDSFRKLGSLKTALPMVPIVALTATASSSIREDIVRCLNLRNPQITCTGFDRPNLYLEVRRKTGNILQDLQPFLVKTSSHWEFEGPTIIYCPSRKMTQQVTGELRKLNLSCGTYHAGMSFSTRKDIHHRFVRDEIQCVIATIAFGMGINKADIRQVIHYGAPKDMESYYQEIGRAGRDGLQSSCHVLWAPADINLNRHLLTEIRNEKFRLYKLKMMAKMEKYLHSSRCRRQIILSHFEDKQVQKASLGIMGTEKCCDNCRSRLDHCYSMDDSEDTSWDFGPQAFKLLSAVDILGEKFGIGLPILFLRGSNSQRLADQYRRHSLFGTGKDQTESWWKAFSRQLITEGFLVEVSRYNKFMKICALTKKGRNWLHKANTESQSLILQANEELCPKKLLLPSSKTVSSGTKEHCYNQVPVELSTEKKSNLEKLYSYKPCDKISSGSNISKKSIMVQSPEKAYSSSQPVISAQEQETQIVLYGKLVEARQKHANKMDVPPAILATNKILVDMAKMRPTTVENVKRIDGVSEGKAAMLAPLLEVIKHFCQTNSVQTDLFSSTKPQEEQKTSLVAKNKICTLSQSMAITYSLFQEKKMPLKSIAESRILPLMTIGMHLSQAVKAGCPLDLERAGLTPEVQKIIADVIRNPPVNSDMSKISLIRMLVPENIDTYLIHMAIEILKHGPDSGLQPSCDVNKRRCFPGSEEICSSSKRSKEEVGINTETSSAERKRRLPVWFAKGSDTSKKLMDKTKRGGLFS

IC50 [1] | IC50 [2] | SMILES
in the range around 35 nM |  | C=CC(=O)N1CCc2nn(-c3ccc(C4CC4)cc3)c3c2C(C1)N(C(=O)C1=CN=C2N=C(C(F)(F)F)N=C2C1)CC3 (stereo not drawn) [US20250346600, Compound 124]
< 1.5 nM | in the range around 35 nM | C=CC(=O)N1CCOc2nn(-c3ccc(C4CCC4)cc3O)c3c2C(C1)N(C(=O)C1=CC2=NN=C(Br)C2=CC1)CC3 (stereo not drawn) [US20250346600, Compound 40]
